Data from the SangsterLogP compilation.

Assay: method code SF-AS, from DOI: 10.1002/zfch.19860260715
Details: pH 7.4

Row | Compound | logD
1 | CC(=O)NNC(=O)Nc1ccc(Oc2ccccc2)cc1 | 2.09
2 | COc1cccc(NC(=O)NNC(C)=O)c1 | 0.39
3 | CC(=O)NNC(=O)Nc1ccc(N(C)C)cc1 | 0.11
4 | CCOc1ccc(NC(=O)NNC(C)=O)cc1 | 0.55
5 | CC(=O)NNC(=O)Nc1ccc(C)cc1 | 0.76

Continued, values first:

Row | logD | Compound
6 | 0.77 | CC(=O)NNC(=O)Nc1cccc(C)c1
7 | 2.14 | CC(=O)NNC(=O)Nc1ccc(C(C)(C)C)cc1
8 | 1.63 | CC(=O)NNC(=O)Nc1cccc(C(F)(F)F)c1
9 | 0.06 | COc1ccc(NC(=O)NNC(C)=O)cc1
10 | 0.37 | CC(=O)NNC(=O)Nc1ccc(C#N)cc1
